Data published in PubChem BioAssay (NCI).
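1) Cells in 96-well plates. 2) Compound, 48 h, 5 concentrations. 3) Linear interpolation between surrounding doses. 4) Unreached endpoint = highest concentration. GI50 marks 50% less growth. TGI is the concentration that stops growth completely.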

What was measured:
Experiment in all cases: inhibition of tumour cell growth, NCI panel, 48 h
[1] = system: HOP-92 NSCLC
[2] = system: LOX IMVI melanoma
[3] = system: U251 CNS
[4] = system: PC-3 prostate
[5] = system: A549 NSCLC
[6] = system: SW-620 colon
[7] = system: NCI/ADR-RES ovarian
[8] = system: UO-31 renal
[9] = system: M14 melanoma
[10] = system: A498 renal
[11] = system: TK-10 renal
[12] = system: NCI-H522 lung
[13] = system: KM12 colon
[14] = system: 786-0 renal
[15] = system: NCI-H23 lung
[16] = system: ACHN renal
[17] = system: MALME-3M melanoma
[18] = system: SR leukemia
[19] = system: MDA-MB-231 breast
[20] = system: HL-60(TB) leukemia
[21] = system: HS 578T breast
[22] = system: SF-539 CNS
[23] = system: SF-295 CNS
[24] = system: UACC-257 melanoma
[25] = system: SF-268 CNS
[26] = system: OVCAR-4 ovarian
[27] = system: MDA-MB-435
[28] = system: SK-MEL-28 melanoma
[29] = system: NCI-H226 lung
[30] = system: HCC-2998 colon
[31] = system: CAKI-1 renal
[32] = system: SNB-75 CNS
[33] = system: SNB-19 CNS
[34] = system: IGROV1 ovarian
[35] = system: DU-145 prostate
[36] = system: OVCAR-8 ovarian
[37] = system: RPMI-8226 leukemia
[38] = system: HT29 colon
[39] = system: HCT-116 colon
[40] = system: EKVX NSCLC
[41] = system: SK-MEL-5 melanoma
[42] = system: HCT-15 colon
[43] = system: MOLT-4 leukemia
[44] = system: NCI-H460 lung
[45] = system: SN12C renal
[46] = system: OVCAR-5 ovarian
[47] = system: MCF7 breast
[48] = system: HOP-62 NSCLC
[49] = system: BT-549 breast
[50] = system: OVCAR-3 ovarian
[51] = system: SK-MEL-2 melanoma
[52] = system: RXF 393 renal
[53] = system: UACC-62 melanoma
[54] = system: COLO 205 colon

For `O=c1c2cc(F)ccc2sc2c(N3CCNCC3)nc3ccccc3c12`, the GI50 [1] was 0.867 µM, the TGI [1] was 2.22 µM and the GI50 [2] was 1.59 µM. The TGI [2] was 3.02 µM, the GI50 [3] was 1.57 µM and the TGI [3] was 3.42 µM. For the same compound, the GI50 [4] was 1.61 µM, the TGI [4] was 3.1 µM and the GI50 [5] was 1.65 µM. It also gave a TGI [5] of 3.54 µM, a GI50 [6] of 1.51 µM and a TGI [6] of 3.01 µM. It also gave a GI50 [7] of 1.69 µM, a TGI [7] of 3.22 µM and a GI50 [8] of 1.37 µM. It also gave a TGI [8] of 2.71 µM, a GI50 [9] of 1.78 µM and a TGI [9] of 3.27 µM. For the same compound, the GI50 [10] was 1.44 µM, the TGI [10] was 2.91 µM and the GI50 [11] was 1.69 µM. It also gave a TGI [11] of 3.24 µM, a GI50 [12] of 1.86 µM and a TGI [12] of 3.72 µM. The GI50 [13] was 1.72 µM, the TGI [13] was 3.34 µM and the GI50 [14] was 1.45 µM. For the same compound, the TGI [14] was 2.93 µM, the GI50 [15] was 1.78 µM and the TGI [15] was 3.27 µM. For the same compound, the GI50 [16] was 1.56 µM, the TGI [16] was 2.89 µM and the GI50 [17] was 1.64 µM. For the same compound, the TGI [17] was 3.22 µM, the GI50 [18] was 1.54 µM and the TGI [18] was 4.14 µM. For the same compound, the GI50 [19] was 1.39 µM, the TGI [19] was 2.78 µM and the GI50 [20] was 1.9 µM. It also gave a TGI [20] of 3.72 µM, a GI50 [21] of 1.53 µM and a TGI [21] of 3.31 µM. The GI50 [22] was 1.63 µM, the TGI [22] was 3.05 µM and the GI50 [23] was 1.75 µM. The TGI [23] was 3.17 µM, the GI50 [24] was 1.99 µM and the TGI [24] was 3.87 µM. The GI50 [25] was 1.55 µM, the TGI [25] was 3.18 µM and the GI50 [26] was 1.74 µM. The TGI [26] was 3.46 µM, the GI50 [27] was 1.65 µM and the TGI [27] was 3.05 µM. The GI50 [28] was 1.75 µM, the TGI [28] was 3.17 µM and the GI50 [29] was 1.82 µM. For the same compound, the TGI [29] was 3.48 µM, the GI50 [30] was 1.65 µM and the TGI [30] was 3.05 µM. It also gave a GI50 [31] of 1.59 µM, a TGI [31] of 2.93 µM and a GI50 [32] of 1.43 µM. It also gave a TGI [32] of 2.8 µM, a GI50 [33] of 1.61 µM and a TGI [33] of 3.04 µM. The GI50 [34] was 1.5 µM, the TGI [34] was 3.02 µM and the GI50 [35] was 1.69 µM. It also gave a TGI [35] of 3.12 µM, a GI50 [36] of 1.82 µM and a TGI [36] of 4.08 µM. It also gave a GI50 [37] of 1.77 µM, a TGI [37] of 3.77 µM and a GI50 [38] of 1.64 µM. It also gave a TGI [38] of 3.35 µM, a GI50 [39] of 1.59 µM and a TGI [39] of 3.01 µM. It also gave a GI50 [40] of 1.55 µM, a TGI [40] of 2.98 µM and a GI50 [41] of 1.76 µM. For the same compound, the TGI [41] was 3.18 µM, the GI50 [42] was 1.41 µM and the TGI [42] was 2.85 µM. The GI50 [43] was 1.7 µM, the TGI [43] was 3.56 µM and the GI50 [44] was 1.49 µM. It also gave a TGI [44] of 2.99 µM, a GI50 [45] of 1.59 µM and a TGI [45] of 3.04 µM. For the same compound, the GI50 [46] was 1.67 µM, the TGI [46] was 3.08 µM and the GI50 [47] was 1.7 µM. The TGI [47] was 3.27 µM, the GI50 [48] was 1.61 µM and the TGI [48] was 3.44 µM. It also gave a GI50 [49] of 7.76 µM, a TGI [49] of 20.9 µM and a GI50 [50] of 1.66 µM. The TGI [50] was 3.09 µM, the GI50 [51] was 2.01 µM and the TGI [51] was 4 µM. For the same compound, the GI50 [52] was 1.29 µM, the TGI [52] was 2.65 µM and the GI50 [53] was 1.69 µM. It also gave a TGI [53] of 3.09 µM, a GI50 [54] of 1.75 µM and a TGI [54] of 4.03 µM.
